Test results reported in patent publication US8393321B2, “Drug delivery system for conscious sedation” (Piramal Critical Care, Inc., priority 2001, dated 2013).
Read-outs that look alike come from different tables or passages of the source.

Key:
patients [1] = assay: Conscious sedation (CS) level, MAC equivalent of 70% nitrous oxide; format: in vivo, human
Protocol: The concentration of oxygen in the atmosphere approximates 21%. […] The most common ratio is 70% N2O/30% oxygen, although some delivery systems maintain 50% oxygen.
The potency of anesthetic agents is measured by the minimum alveolar concentration of an anesthetic producing immobility in 50% of patients, defined as 39 year old males, undergoing surgical incision (“MAC”). […] In present inhalant conscious sedation systems, nitrous oxide is delivered in conjunction with a minimum of 30% oxygen to insure the patient maintains a sufficient level of oxygen. […] For this description a MAC equivalent of 70% nitrous oxide will be used for comparison with other inhalants, as shown in Table 2.

patients [2] = settings: in 100% oxygen for middle-aged men, cited from earlier work
[3] = soda lime (calcium hydroxide) and/or UV light; cited from earlier work
patient = settings: conscious sedation; cited from earlier work
patients [4] = settings: N2O with oxygen; cited from earlier work

Compound	Implied CS Level (patients [1]; in vivo)	MAC (patients [2])	decomposition in presence of soda lime and/or UV light [3]	Abuse Potential (patient)	Safety Profile (patient)	also measured
FC(F)OC(F)C(F)(F)F (stereo not shown) [Desflurane]	3.82%	6.00%				
FC(F)OC(F)(F)C(F)Cl (stereo not shown) [Enflurane]	1.07%	1.68%				
FC(F)(F)C(Cl)Br (stereo not shown) [Halothane]	0.48%	0.75%	decompose			
CN1C(=O)CN=C(c2ccccc2)c2cc(Cl)ccc21 [IV Diazepam, Diazepam]				Controlled	Moderate	
Cc1ncc2n1-c1ccc(Cl)cc1C(c1ccccc1F)=NC2 [IV Midazolam, Midazolam]				Controlled	Moderate	
FC(F)OC(Cl)C(F)(F)F (stereo not shown) [Isoflurane]	0.73%	1.15%				
COC(F)(F)C(Cl)Cl [Methoxyflurane]		0.16%	decompose			Implied CS Level (patients [1]; MAC equivalent of 70% nitrous oxide (.636)): 0.11%; MAC (patients [2]; listed as methoxyflurane): 0.16%
[N-]=[N+]=O [Nitrous Oxide]	70.00%	110.00%		Recre-	Teratogenic	MAC Equivalent (patients [1]; in vivo): .636; Minimum Alveolar Content (MAC) of 70% N2O/30% oxygen mixture (patients [1]; in vivo): 0.636 MAC; mixture concentration at which conscious sedation occurs in most patients (patients [4]): 70%; MAC (patients [2]; listed as nitrous oxide): 110%
FCOC(C(F)(F)F)C(F)(F)F [Sevoflurane]	1.27%	2.00%	decompose			
